Data taken from PubChem BioAssay AID330 (DTP/NCI, 2004).
Toxic doses and inconclusive results are not listed.

Tested on: P388 leukemia ip, CD2F1 mice, survival T/C
Assay: NCI In Vivo Anticancer Drug Screen. Data for tumor model P388 Leukemia (intraperitoneal) in CD2F1 (CDF1) mice
Conditions: endpoint: median survival time, higher = longer survival
In short: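 Mice carrying the transplanted tumor received test compound or vehicle. Survival was recorded in each group, and the value is the treated-group measurement divided by that of the vehicle-treated control group.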

[1] = dose: 6.25 mg/kg/injection, schedule: Q01DX009 (ip), vehicle: saline
[2] = dose: 50.0 mg/kg/injection, schedule: Q01DX005 (ip), vehicle: Klucel (hydroxypropylcellulose) (HPC)
[3] = dose: 100.0 mg/kg/injection, schedule: Q01DX005 (ip), vehicle: Klucel (hydroxypropylcellulose) (HPC)
[4] = dose: 200.0 mg/kg/injection, schedule: Q01DX005 (ip), vehicle: Klucel (hydroxypropylcellulose) (HPC)
[5] = dose: 50.0 mg/kg/injection, schedule: Q01DX009 (ip), vehicle: saline with Tween-80
[6] = dose: 100.0 mg/kg/injection, schedule: Q01DX009 (ip), vehicle: saline with Tween-80
[7] = dose: 200.0 mg/kg/injection, schedule: Q01DX009 (ip), vehicle: saline with Tween-80
[8] = dose: 60.0 mg/kg/injection, schedule: Q01DX005 (ip), vehicle: saline with Tween-80
[9] = dose: 120.0 mg/kg/injection, schedule: Q01DX005 (ip), vehicle: saline with Tween-80
[10] = dose: 240.0 mg/kg/injection, schedule: Q01DX005 (ip), vehicle: saline with Tween-80
[11] = dose: 25.0 mg/kg/injection, schedule: Q01DX009 (ip), vehicle: saline with Tween-80

Nc1nc(N)c2cc(CNc3ccc(C(=O)NC(CC(=O)O)C(=O)O)cc3)ccc2n1 (centres undefined)
T/C (dose: 0.13 mg/kg/injection, schedule: Q04DX003 (ip), vehicle: saline with Tween-80): 109 % of control | T/C (dose: 0.25 mg/kg/injection, schedule: Q04DX003 (ip), vehicle: saline with Tween-80): 113 % of control | T/C (dose: 0.5 mg/kg/injection, schedule: Q01DX009 (ip), vehicle: saline): 181 % of control | T/C (dose: 1.0 mg/kg/injection, schedule: Q01DX009 (ip), vehicle: saline): 200 % of control | T/C (dose: 1.0 mg/kg/injection, schedule: Q04DX003 (ip), vehicle: saline with Tween-80): 150 % of control | T/C (dose: 1.56 mg/kg/injection, schedule: Q01DX009 (ip), vehicle: saline): 222 % of control | T/C (dose: 3.13 mg/kg/injection, schedule: Q01DX009 (ip), vehicle: saline): 259 % of control | T/C [1]: 90 % of control

C[C@]12C[C@@H](O)[C@H]3[C@@H](CCC4=C(O)C(=O)CC[C@@]43C)[C@@H]1CC[C@@H]2O
T/C (dose: 12.5 mg/kg/injection, schedule: Q01DX005 (ip), vehicle: Klucel (hydroxypropylcellulose) (HPC)): 97 % of control | T/C (dose: 25.0 mg/kg/injection, schedule: Q01DX005 (ip), vehicle: Klucel (hydroxypropylcellulose) (HPC)): 105 % of control | T/C [2]: 101 % of control | T/C [3]: 90 % of control | T/C [4]: 95 % of control

CC(=O)NNc1ccc(Cl)cc1[N+](=O)[O-]
T/C (dose: 50.0 mg/kg/injection, schedule: Q01DX009 (ip), vehicle: Klucel (hydroxypropylcellulose) (HPC)): 96 % of control | T/C (dose: 100.0 mg/kg/injection, schedule: Q01DX009 (ip), vehicle: Klucel (hydroxypropylcellulose) (HPC)): 101 % of control

CC(=NCCN=C(C)c1ccccc1O)c1ccccc1O.[Cu]
T/C [5]: 105 % of control | T/C [6]: 99 % of control | T/C [7]: 89 % of control

C=C(C)CBr
T/C [8]: 100 % of control | T/C [9]: 100 % of control | T/C [10]: 100 % of control

O=C1C(c2cnc3c(n2)CCC=C3)=C(O)c2ccccc21
T/C [8]: 99 % of control | T/C [9]: 100 % of control | T/C [10]: 100 % of control

CCOC(=O)C(C(=O)OCC)=C(C)C
T/C (dose: 21.3 mg/kg/injection, schedule: Q01DX009 (ip), vehicle: saline with Tween-80): 93 % of control | T/C (dose: 42.5 mg/kg/injection, schedule: Q01DX009 (ip), vehicle: saline with Tween-80): 90 % of control | T/C (dose: 85.0 mg/kg/injection, schedule: Q01DX009 (ip), vehicle: saline with Tween-80): 91 % of control | T/C (dose: 170.0 mg/kg/injection, schedule: Q01DX009 (ip), vehicle: saline with Tween-80): 93 % of control | T/C (dose: 177.0 mg/kg/injection, schedule: Q01DX009 (ip), vehicle: saline with Tween-80): 123 % of control | T/C (dose: 400.0 mg/kg/injection, schedule: Q01DX009 (ip), vehicle: saline with Tween-80): 120 % of control

CC(C)(O)C1COC2=C1C(=O)c1ccccc1C2=O (centres undefined)
T/C (dose: 50.0 mg/kg/injection, schedule: Q01DX009 (ip), vehicle: other): 94 % of control | T/C (dose: 100.0 mg/kg/injection, schedule: Q01DX009 (ip), vehicle: other): 107 % of control

CCOC(=O)C1=C(C(=O)c2ccccc2)C(c2ccccc2[N+](=O)[O-])C(C(=O)c2ccccc2)=C(C(=O)OCC)N1
T/C [8]: 101 % of control | T/C [9]: 98 % of control

O=C(CC(=O)C(F)(F)F)c1ccc(-c2ccccc2)cc1
T/C [11]: 110 % of control | T/C [5]: 116 % of control | T/C [6]: 111 % of control

Cc1nc2sccn2c1C#N
T/C (dose: 12.5 mg/kg/injection, schedule: Q01DX001 (ip), vehicle: Klucel (hydroxypropylcellulose) (HPC)): 117 % of control | T/C (dose: 25.0 mg/kg/injection, schedule: Q01DX001 (ip), vehicle: Klucel (hydroxypropylcellulose) (HPC)): 102 % of control | T/C (dose: 50.0 mg/kg/injection, schedule: Q01DX001 (ip), vehicle: Klucel (hydroxypropylcellulose) (HPC)): 102 % of control

Cc1ccc(S(=O)(=O)CC(O)(C(C)C)C(C)C)cc1
T/C (dose: 50.0 mg/kg/injection, schedule: Q01DX005 (ip), vehicle: saline with Tween-80): 103 % of control | T/C (dose: 100.0 mg/kg/injection, schedule: Q01DX005 (ip), vehicle: saline with Tween-80): 102 % of control | T/C (dose: 200.0 mg/kg/injection, schedule: Q01DX005 (ip), vehicle: saline with Tween-80): 102 % of control

CCCn1c(C)nc2c(cnn2C)c1=O
T/C [2]: 101 % of control | T/C [3]: 104 % of control | T/C [4]: 111 % of control

COC(=O)C1=C(C(=O)OC)C2(c3ccccc3-c3ccccc32)C2C=CC=NN12 (centres undefined)
T/C [2]: 100 % of control | T/C [3]: 103 % of control | T/C [4]: 100 % of control

O=C(c1ccccc1)c1ccc(NC(=O)C(F)(F)F)cc1
T/C [5]: 88 % of control | T/C [6]: 86 % of control | T/C [7]: 99 % of control

c1ccc2c(SCCCCCSc3c4ccccc4nc4ccccc34)c3ccccc3nc2c1
T/C (dose: 60.0 mg/kg/injection, schedule: Q01DX005 (ip), vehicle: Klucel (hydroxypropylcellulose) (HPC)): 97 % of control | T/C (dose: 120.0 mg/kg/injection, schedule: Q01DX005 (ip), vehicle: Klucel (hydroxypropylcellulose) (HPC)): 89 % of control | T/C (dose: 240.0 mg/kg/injection, schedule: Q01DX005 (ip), vehicle: Klucel (hydroxypropylcellulose) (HPC)): 88 % of control

Cn1c(=O)ccc2c1nc1ccccc1[n+]2[O-]
T/C [8]: 101 % of control | T/C [9]: 102 % of control

CCCCCCCCC(O)CCC (centres undefined)
T/C (dose: 100.0 mg/kg/injection, schedule: Q04DX003 (ip), vehicle: saline): 100 % of control | T/C (dose: 200.0 mg/kg/injection, schedule: Q04DX003 (ip), vehicle: saline): 100 % of control | T/C (dose: 400.0 mg/kg/injection, schedule: Q04DX003 (ip), vehicle: saline): 100 % of control

COc1cc2c(cc1OC)C1C(CO)c3ccc(OC)c(OC)c3CN1CC2 (centres undefined)
T/C (dose: 50.0 mg/kg/injection, schedule: Q04DX003 (ip), vehicle: distilled water + Tween-80): 96 % of control | T/C (dose: 100.0 mg/kg/injection, schedule: Q04DX003 (ip), vehicle: distilled water + Tween-80): 93 % of control | T/C (dose: 200.0 mg/kg/injection, schedule: Q04DX003 (ip), vehicle: distilled water + Tween-80): 87 % of control | T/C (dose: 400.0 mg/kg/injection, schedule: Q04DX003 (ip), vehicle: distilled water + Tween-80): 91 % of control

CC(C)(C)[Si](C)(C)ONC(N)=O
T/C (dose: 12.5 mg/kg/injection, schedule: Q01DX009 (ip), vehicle: distilled water + Tween-80): 99 % of control | T/C (dose: 25.0 mg/kg/injection, schedule: Q01DX009 (ip), vehicle: distilled water + Tween-80): 94 % of control | T/C (dose: 50.0 mg/kg/injection, schedule: Q01DX009 (ip), vehicle: distilled water + Tween-80): 93 % of control | T/C (dose: 100.0 mg/kg/injection, schedule: Q01DX009 (ip), vehicle: distilled water + Tween-80): 88 % of control | T/C (dose: 200.0 mg/kg/injection, schedule: Q01DX009 (ip), vehicle: distilled water + Tween-80): 90 % of control

CCN(CC)Cc1cc(Nc2ccnc3cc(N(C)C)ccc23)ccc1O
T/C [1]: 103 % of control | T/C (dose: 12.5 mg/kg/injection, schedule: Q01DX009 (ip), vehicle: saline): 115 % of control | T/C (dose: 25.0 mg/kg/injection, schedule: Q01DX009 (ip), vehicle: saline): 115 % of control

CCC(=O)Nc1ccc(C(=O)C(C)O[N+](=O)[O-])cc1 (centres undefined)
T/C [11]: 98 % of control | T/C [5]: 99 % of control | T/C [6]: 100 % of control

COC1=C(C)C(=O)c2c(C(C)C)cc(O)c(C=O)c2C1=O
T/C (dose: 3.0 mg/kg/injection, schedule: Q01DX009 (ip), vehicle: Klucel (hydroxypropylcellulose) (HPC)): 100 % of control | T/C (dose: 6.0 mg/kg/injection, schedule: Q01DX009 (ip), vehicle: Klucel (hydroxypropylcellulose) (HPC)): 100 % of control | T/C (dose: 12.0 mg/kg/injection, schedule: Q01DX009 (ip), vehicle: Klucel (hydroxypropylcellulose) (HPC)): 109 % of control | T/C (dose: 24.0 mg/kg/injection, schedule: Q01DX009 (ip), vehicle: Klucel (hydroxypropylcellulose) (HPC)): 109 % of control

NS(=O)(=O)c1ccc(N=Cc2cnc3ccccc3n2)cc1
T/C (dose: 5.0 mg/kg/injection, schedule: Q01DX009 (ip), vehicle: saline): 97 % of control | T/C (dose: 10.0 mg/kg/injection, schedule: Q01DX009 (ip), vehicle: saline): 101 % of control | T/C (dose: 20.0 mg/kg/injection, schedule: Q01DX009 (ip), vehicle: saline): 97 % of control

CN(C)CCC(c1ccccc1)C(CO)c1ccccc1 (centres undefined)
T/C (dose: 100.0 mg/kg/injection, schedule: Q01DX001 (ip), vehicle: Klucel (hydroxypropylcellulose) (HPC)): 116 % of control | T/C (dose: 200.0 mg/kg/injection, schedule: Q01DX001 (ip), vehicle: Klucel (hydroxypropylcellulose) (HPC)): 102 % of control
